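1) Cells in 96-well plates. 2) Compound, 48 h, 5 concentrations. 3) Linear interpolation between surrounding doses. 4) Unreached endpoint = highest concentration. Here, GI50 denotes the concentration required for 50% inhibition of growth. TGI: concentration producing complete growth inhibition.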
Tests used:
Assay in all cases: inhibition of tumour cell growth, NCI panel, 48 h
786-0 renal = tested on: 786-0 renal
A498 renal = tested on: A498 renal
A549 NSCLC = tested on: A549 NSCLC
ACHN renal = tested on: ACHN renal
BT-549 breast = tested on: BT-549 breast
CAKI-1 renal = tested on: CAKI-1 renal
COLO 205 colon = tested on: COLO 205 colon
DU-145 prostate = tested on: DU-145 prostate
EKVX NSCLC = tested on: EKVX NSCLC
HCC-2998 colon = tested on: HCC-2998 colon
HCT-116 colon = tested on: HCT-116 colon
HCT-15 colon = tested on: HCT-15 colon
HL-60(TB) leukemia = tested on: HL-60(TB) leukemia
HOP-62 NSCLC = tested on: HOP-62 NSCLC
HOP-92 NSCLC = tested on: HOP-92 NSCLC
HS 578T breast = tested on: HS 578T breast
HT29 colon = tested on: HT29 colon
IGROV1 ovarian = tested on: IGROV1 ovarian
K-562 leukemia = tested on: K-562 leukemia
KM12 colon = tested on: KM12 colon
LOX IMVI melanoma = tested on: LOX IMVI melanoma
M14 melanoma = tested on: M14 melanoma
MALME-3M melanoma = tested on: MALME-3M melanoma
MCF7 breast = tested on: MCF7 breast
MDA-MB-231 breast = tested on: MDA-MB-231 breast
MDA-MB-435 = tested on: MDA-MB-435
NCI-H226 lung = tested on: NCI-H226 lung
NCI-H23 lung = tested on: NCI-H23 lung
NCI-H460 lung = tested on: NCI-H460 lung
NCI-H522 lung = tested on: NCI-H522 lung
NCI/ADR-RES ovarian = tested on: NCI/ADR-RES ovarian
OVCAR-3 ovarian = tested on: OVCAR-3 ovarian
OVCAR-4 ovarian = tested on: OVCAR-4 ovarian
OVCAR-5 ovarian = tested on: OVCAR-5 ovarian
OVCAR-8 ovarian = tested on: OVCAR-8 ovarian
PC-3 prostate = tested on: PC-3 prostate
RPMI-8226 leukemia = tested on: RPMI-8226 leukemia
RXF 393 renal = tested on: RXF 393 renal
SF-268 CNS = tested on: SF-268 CNS
SF-295 CNS = tested on: SF-295 CNS
SF-539 CNS = tested on: SF-539 CNS
SK-MEL-2 melanoma = tested on: SK-MEL-2 melanoma
SK-MEL-28 melanoma = tested on: SK-MEL-28 melanoma
SK-MEL-5 melanoma = tested on: SK-MEL-5 melanoma
SK-OV-3 ovarian = tested on: SK-OV-3 ovarian
SN12C renal = tested on: SN12C renal
SNB-19 CNS = tested on: SNB-19 CNS
SNB-75 CNS = tested on: SNB-75 CNS
SR leukemia = tested on: SR leukemia
SW-620 colon = tested on: SW-620 colon
TK-10 renal = tested on: TK-10 renal
U251 CNS = tested on: U251 CNS
UACC-257 melanoma = tested on: UACC-257 melanoma
UACC-62 melanoma = tested on: UACC-62 melanoma
UO-31 renal = tested on: UO-31 renal

Structure (SMILES): COc1ccc(NC2=C(Cl)C(=O)C(C)=C(C)C2=O)cc1
- GI50 (786-0 renal): 18.7 µM
- TGI (786-0 renal): 34 µM
- GI50 (A498 renal): 18 µM
- TGI (A498 renal): 47.2 µM
- GI50 (A549 NSCLC): 21.7 µM
- TGI (A549 NSCLC): > 100 µM
- GI50 (ACHN renal): 3.94 µM
- TGI (ACHN renal): 13.6 µM
- GI50 (BT-549 breast): 13.3 µM
- TGI (BT-549 breast): 26.6 µM
- GI50 (CAKI-1 renal): 10.4 µM
- TGI (CAKI-1 renal): 22.2 µM
- GI50 (COLO 205 colon): 19.2 µM
- TGI (COLO 205 colon): 38.8 µM
- GI50 (DU-145 prostate): 25.2 µM
- TGI (DU-145 prostate): 69.8 µM
- GI50 (EKVX NSCLC): 1.79 µM
- TGI (EKVX NSCLC): 3.43 µM
- GI50 (HCC-2998 colon): 16.8 µM
- TGI (HCC-2998 colon): 31.7 µM
- GI50 (HCT-116 colon): 2 µM
- TGI (HCT-116 colon): 4.37 µM
- GI50 (HCT-15 colon): 13.7 µM
- TGI (HCT-15 colon): 27.9 µM
- GI50 (HL-60(TB) leukemia): 2.18 µM
- TGI (HL-60(TB) leukemia): 5.54 µM
- GI50 (HOP-62 NSCLC): 12.2 µM
- TGI (HOP-62 NSCLC): 25.4 µM
- GI50 (HOP-92 NSCLC): 1.4 µM
- TGI (HOP-92 NSCLC): 2.84 µM
- GI50 (HS 578T breast): 17.4 µM
- TGI (HS 578T breast): 72.4 µM
- GI50 (HT29 colon): 23.5 µM
- TGI (HT29 colon): 54.1 µM
- GI50 (IGROV1 ovarian): 1.78 µM
- TGI (IGROV1 ovarian): 3.35 µM
- GI50 (K-562 leukemia): 2.58 µM
- TGI (K-562 leukemia): 9.59 µM
- GI50 (KM12 colon): 3.75 µM
- TGI (KM12 colon): 44.3 µM
- GI50 (LOX IMVI melanoma): 1.79 µM
- TGI (LOX IMVI melanoma): 3.59 µM
- GI50 (M14 melanoma): 12 µM
- TGI (M14 melanoma): 26.6 µM
- GI50 (MALME-3M melanoma): 14 µM
- TGI (MALME-3M melanoma): 28.2 µM
- GI50 (MCF7 breast): 2.35 µM
- TGI (MCF7 breast): 6.05 µM
- GI50 (MDA-MB-231 breast): 1.99 µM
- TGI (MDA-MB-231 breast): 4.49 µM
- GI50 (MDA-MB-435): 2.74 µM
- TGI (MDA-MB-435): 7.13 µM
- GI50 (NCI-H226 lung): 12.3 µM
- TGI (NCI-H226 lung): 27.6 µM
- GI50 (NCI-H23 lung): 14.8 µM
- TGI (NCI-H23 lung): 55 µM
- GI50 (NCI-H460 lung): 25.5 µM
- TGI (NCI-H460 lung): > 100 µM
- GI50 (NCI-H522 lung): 13.3 µM
- TGI (NCI-H522 lung): 29.5 µM
- GI50 (NCI/ADR-RES ovarian): 2.89 µM
- TGI (NCI/ADR-RES ovarian): 9.87 µM
- GI50 (OVCAR-3 ovarian): 2.12 µM
- TGI (OVCAR-3 ovarian): 4.53 µM
- GI50 (OVCAR-4 ovarian): 1.71 µM
- TGI (OVCAR-4 ovarian): 3.1 µM
- GI50 (OVCAR-5 ovarian): 16.8 µM
- TGI (OVCAR-5 ovarian): 35.7 µM
- GI50 (OVCAR-8 ovarian): 1.84 µM
- TGI (OVCAR-8 ovarian): 3.84 µM
- GI50 (PC-3 prostate): 4.51 µM
- TGI (PC-3 prostate): 20.6 µM
- GI50 (RPMI-8226 leukemia): 2.23 µM
- TGI (RPMI-8226 leukemia): 5.69 µM
- GI50 (RXF 393 renal): 9.13 µM
- TGI (RXF 393 renal): 21.4 µM
- GI50 (SF-268 CNS): 11.4 µM
- TGI (SF-268 CNS): 52.2 µM
- GI50 (SF-295 CNS): 10.3 µM
- TGI (SF-295 CNS): 23.7 µM
- GI50 (SF-539 CNS): 15.5 µM
- TGI (SF-539 CNS): 29.4 µM
- GI50 (SK-MEL-2 melanoma): 11 µM
- TGI (SK-MEL-2 melanoma): 24.1 µM
- GI50 (SK-MEL-28 melanoma): 14.9 µM
- TGI (SK-MEL-28 melanoma): 28.8 µM
- GI50 (SK-MEL-5 melanoma): 6.45 µM
- TGI (SK-MEL-5 melanoma): 19.1 µM
- GI50 (SK-OV-3 ovarian): 10.8 µM
- TGI (SK-OV-3 ovarian): 22.7 µM
- GI50 (SN12C renal): 12.7 µM
- TGI (SN12C renal): 26.3 µM
- GI50 (SNB-19 CNS): 10.3 µM
- TGI (SNB-19 CNS): 22.1 µM
- GI50 (SNB-75 CNS): 4.49 µM
- TGI (SNB-75 CNS): 19.1 µM
- GI50 (SR leukemia): 2.37 µM
- TGI (SR leukemia): 8.06 µM
- GI50 (SW-620 colon): 3.92 µM
- TGI (SW-620 colon): 18.9 µM
- GI50 (TK-10 renal): 28.6 µM
- TGI (TK-10 renal): 52.1 µM
- GI50 (U251 CNS): 7.5 µM
- TGI (U251 CNS): 21 µM
- GI50 (UACC-257 melanoma): 1.86 µM
- TGI (UACC-257 melanoma): 3.96 µM
- GI50 (UACC-62 melanoma): 10.6 µM
- TGI (UACC-62 melanoma): 22.7 µM
- GI50 (UO-31 renal): 11.1 µM
- TGI (UO-31 renal): 23.1 µM
